Experimental data as given in patent publication US7119105B2, “Methods for treating neurodegenerative disorders using aspartyl protease inhibitors” (The Regents of the University of California, priority 1997, dated 2006).

Legend:
Type in all cases: cell-based, rat
[1] = test system: phosphorylated tau fragment; assay: Phosphorylated tau fragments in entorhinohippocampal slice cultures (immunoblot); settings: six days; ZPAD 20 μM, CEL5-172 10 μM, EA-1 1 μM; vs control
Description: Briefly, the caudal pole of the cerebral hemisphere containing the entorhinal cortex and hippocampus were harvested from brains of 6–7 days old Sprague-Dawley rat pups under sterile condition. 400 μm horizontal entorhinohippocampal sections cut vertical to the long axes of hippocampus were obtained using a McIlwain tissue chopper in a cutting medium consisting of MEM (with Earle's salts, Gibco), 25 mM HEPES, 10 mM Tris Base, 10 mM Glucose, and 3 mM MgCl2 (pH 7.2). Brain tissue explants were then planted onto 30 mm cell culture inserts (Illicell-CM, Millipore, Bedford, Mass.) that were placed in 6 well culture trays with 1 mL of growth medium (MEM with Hank's salts, Gibco, 20% horse serum, 3 mM glutamine, 25 mM HEPES, 5 mM NaHCO3, 25 mM glucose, 0.5 mM ascorbate, 2 mM CaCl2, 2.5 mM MgCl2, 0.5 mg/L insulin, and penicillin, pH 7.2; Bi, et al., J. Comp. Neuro., 401, 382–394 (1998). The cultures were incubated at 35° C. with a 5% CO2-enriched atmosphere and fed every other day until use.

cathepsin D isoforms = assay: Cathepsin D isoforms in hippocampal slice cultures, Western blot; settings: ZPAD alone
Description: (§1) Organotypic hippocampal cultures were prepared using the technique of Stoppini, et al. (J. Neurosci. Meth., 37:173–182 (1991)). Briefly, hippocampi were harvested from brains of 9–11 days old Sprague-Dawley rat pups under sterile condition. Horizontal sections vertical to the long axis of hippocampus were cut at 400 μm and collected in a cutting medium consisting of MEM (with Earle's salts, Gibco), 25 mM HEPES, 10 mM Tris Base, 10 mM Glucose, and 3 mM MgCl2 (pH 7.2). Slices were positioned onto 30 mm cell culture inserts (Millicell-CM, Millipore, Bedford, Mass.) that were placed in 6 well culture trays with 1 ml of growth medium (MEM with Hank's salts, Gibco, 20% horse serum, 3 mM glutamine, 25 mM HEPES, 5 mM NaHCO3, 25 mM glucose, 0.5 mM ascorbate, 2 mM CaCl2, 2.5 mM MgCl2, 0.5 mg/l insulin, and penicillin, pH 7.2; 9). […]
(§2) Experiments were carried out using a yoked design in which one of the six culture trays was always used as a control and values for experimentally treated slices were expressed as percents of the same plate control. […]
(§3) Hippocampal slices were collected and sonicated in 10 mM Tris-HCl buffer (pH 7.4) containing 0.32 M sucrose, 2 mM EDTA, 2 mM EGTA, and 0.1 mM leupeptin. […] Immunoblots were scanned and the digitized images were quantitatively analyzed by densitometry using the NIH Image analysis system program.

[2] = test system: hyperphosphorylated tau fragments (tau 29); assay: Hyperphosphorylated tau fragments (tau 29) in hippocampal slice cultures, AT8 Western blot
Description: Organotypic hippocampal cultures were prepared using the technique of Stoppini, et al. (J. Neurosci. Meth., 37:173–182 (1991)). Briefly, hippocampi were harvested from brains of 9–11 days old Sprague-Dawley rat pups under sterile condition. Horizontal sections vertical to the long axis of hippocampus were cut at 400 μm and collected in a cutting medium consisting of MEM (with Earle's salts, Gibco), 25 mM HEPES, 10 mM Tris Base, 10 mM Glucose, and 3 mM MgCl2 (pH 7.2). Slices were positioned onto 30 mm cell culture inserts (Millicell-CM, Millipore, Bedford, Mass.) that were placed in 6 well culture trays with 1 ml of growth medium (MEM with Hank's salts, Gibco, 20% horse serum, 3 mM glutamine, 25 mM HEPES, 5 mM NaHCO3, 25 mM glucose, 0.5 mM ascorbate, 2 mM CaCl2, 2.5 mM MgCl2, 0.5 mg/l insulin, and penicillin, pH 7.2; 9). The cultures were incubated at 35° C. with a 5% CO2-enriched atmosphere with medium changed every other day until use. Incubations were carried out for 14 days before the start of experiments. This period is sufficient for the slices to take on a variety of adult characteristics (Bahr, J Neurosci Res., 42:294–305 (1995); and Muller, et al., Dev. Brain Res., 71:93–100 (1993)).
Experiments were carried out using a yoked design in which one of the six culture trays was always used as a control and values for experimentally treated slices were expressed as percents of the same plate control. Hippocampal slice cultures were exposed to medium containing one of three cathepsin D inhibitors (see, below) or to ‘ZPAD’ (N-CBZ-L-phenylalanyl-L-alanine-diazomethylketone), a selective inhibitor of cathepsins B and L (Green, et al., J. Biol. Chem., 256:1923–1928 (1981); Richardson, et al., J. Cell Biol., 107:2097–2107 (1988); and Shaw, et al., Biochem. J., 186:385–390 (1980)). […]
as §3

[3] = test system: native (unphosphorylated) tau; assay: Native tau isoforms and 29 kDa fragment in hippocampal slice cultures, tau 1 Western blot; settings: ZPAD six-day treatment, tau 1 antibody
Description: as §1, §2, §3

29 kDa APP fragment = assay: APP fragment in entorhinohippocampal slice cultures (immunoblot, anti-C APP643-695); settings: six days; ZPAD 20 μM, CEL5-172 10 μM; vs control
Description: Organotypic entorhinohippocampal cultures were prepared using the technique of Stoppini, et al., J. Neurosci. Methods, 37, 173–182 (1991). Briefly, the caudal pole of the cerebral hemisphere containing the entorhinal cortex and hippocampus were harvested from brains of 6–7 days old Sprague-Dawley rat pups under sterile condition. 400 μm horizontal entorhinohippocampal sections cut vertical to the long axes of hippocampus were obtained using a McIlwain tissue chopper in a cutting medium consisting of MEM (with Earle's salts, Gibco), 25 mM HEPES, 10 mM Tris Base, 10 mM Glucose, and 3 mM MgCl2 (pH 7.2). […]
For western blot, entorhinohippocampal explants were collected and sonicated in 10 mM Tris-HCl buffer (pH 7.4) containing 0.32 M sucrose, 2 mM EDTA, 2 mM EGTA, and 0.1 mM leupeptin. […] Immunoblots were scanned, and the digitized images were quantitatively analyzed by densitometry using the NIH Image analysis system program. […]

N-CBZ-L-phenylalanyl-L-alanine-diazomethylketone [ZPAD]
concentration of phosphorylated tau fragment, inhibitor by itself [1]: increases | increase in heavy chain isoform of cathepsin D (cathepsin D isoforms): 70% | effect on procathepsin D (cathepsin D isoforms; 6 days): modest increases | effect on tau 29 concentration, inhibitor by itself ([2]; 2-6 days, CEL5 5 μM, EA-1 at concentrations tested, ZPAD 20 μM): increased | increase in the hyperphosphorylated tau fragment (mean±s.e.m.) ([2]; ZPAD 20 μM by itself, 6 days, vs yoked control, 5 experiments): 104±18% | time at which ZPAD induced increases in phosphorylated tau fragment appeared ([2]; earliest time point tested): 48 h | increase in 29 kDa fragments [3]: 101% | reduction of native tau concentrations (four isoforms) from yoked controls ([3]; n=8): 19–32% | concentration of 29 kDa APP fragment, inhibitor by itself (29 kDa APP fragment): increases
